Tests used:
Retinol Dehydrogenase = assay: Assay for retinol dehydrogenase activity, rat liver microsomes (to identify B2); format: biochemical; settings: test compound final 100 μM
Description: 2.2 Isolation of Rat Liver Microsomes (4)
The resulting homogenate was successively centrifuged for 30 min. at 10,000 g, 30 min. at 20,000 g, and 15 min. at 30,000 g, and the resulting supernatant was ultra-centrifuged for 80 min. at 105,000 g. […] Protein concentrations were determined as described above.
2.4 Assay for Retinol Dehydrogenase Activity (to Identify B2)
The following stock solutions were prepared:
50 mM KH2PO4, pH 7.4 buffer, sterile filtered.
10 mM all trans Retinol (Sigma 87632) in DMSO.
200 mM Nicotinamide adenine dinucleotide phosphate, sodium salt (NADP) (Sigma N0505) in sterile water.
40 mM test compound in appropriate solvent (water, buffer, ethanol, chloroform or DMSO).
1:10 dilution of rat liver Microsomes in 50 mM KH2PO4, pH 7.4 buffer (4 μg/μl).
In a two-dram glass vial with screw cap, the following were added in order:
Buffer to give a final volume of 400 μl
25 μl diluted Microsomes (final=100 μg)—boiled Microsomes were used for controls and regular Microsomes for test samples.
4 μl of 200 mM NADP (final=2 mM)
1 μl of 40 mM test compound (final=100 μM)
8 μl of 10 mM retinol (final=200 μM)
The vials were incubated in a 37° C. shaking water bath for 45 minutes. 500 μl ice-cold ethanol was added to each vial to quench the reaction. The retinoids were extracted twice with ice cold hexane (2.7 ml per extraction). […]

[1] = tested on: transglutaminase (TGase I); assay: Transglutaminase (Tgase) ELISA assay in cultured keratinocytes with retinol and boosters; format: cell-based, human; settings: for Tgase levels (Mean): with 10^-7 M retinol

Question: How did the “% Increase Retinol Dehydrogenase” value (Retinol Dehydrogenase) turn out when Phosphatidyl Choline was run?
Answer: 21% increase

Question: And the “TG as % C Compd 1” value ([1]; Compound 1 alone, concentration one log below IC20, in the presence of 10^-7M retinol)?
Answer: 88 % C

Question: And the “TG as % C Compd 2” value ([1]; Compound 2 alone, concentration one log below IC20, in the presence of 10^-7M retinol)?
Answer: 88 % C

Question: What about the “TG as % C, Compd 3” value ([1]; Compound 3 alone, concentration one log below IC20, in the presence of 10^-7M retinol) of the same substance?
Answer: 88 % C

Question: And the “Tgase levels (Mean)” value ([1]; booster 1.2E−08 Molar)?
Answer: 159 % of control

Question: And the “Tgase levels (Mean)” value ([1]; booster 1.47E−05 Molar)?
Answer: 120.3 % of control

Question: What about the “Tgase levels (Mean)” value ([1]; booster 1.63E−06 Molar) of the same substance?
Answer: 98.8 % of control

Question: What about the “Tgase levels (Mean)” value ([1]; booster 1.8E−07 Molar) of the same substance?
Answer: 75.9 % of control

Question: And the “Tgase levels (Mean)” value ([1]; booster 2.4E−09 Molar)?
Answer: 85.5 % of control

Question: What about the “Tgase levels (Mean)” value ([1]; booster 4.4E−05 Molar) of the same substance?
Answer: 90.9 % of control

Question: And the “Tgase levels (Mean)” value ([1]; booster 4.89E−06 Molar)?
Answer: 70.1 % of control

Question: And the “Tgase levels (Mean)” value ([1]; booster 5.43E−07 Molar)?
Answer: 86.7 % of control

Question: What about the “Tgase levels (Mean)” value ([1]; booster 6.0E−08 Molar) of the same substance?
Answer: 87.8 % of control

Question: And the “TG as % C Compd 1” value ([1]; compound 1 alone, with retinol, concentration one log below IC20)?
Answer: 98 % C

Question: What about the “TG as % C Compd 2” value ([1]; compound 2 alone, with retinol, concentration one log below IC20, listed as Phospahtidylcholine) of the same substance?
Answer: 97 % C

Question: What about the “TG as % C Compd 2” value ([1]; compound 2 alone, with retinol, concentration one log below IC20, listed as Phosphatidyl choline) of the same substance?
Answer: 98 % C

Question: And the “TG as % C Compd 2” value ([1]; compound 2 alone, with retinol, concentration one log below IC20, listed as Phosphatidylcholine)?
Answer: 97 % C

Reference: patent publication US8409550B2, “Method for treating skin with retinoids and retinoid boosters” (Unilever Home & Personal Care, USA, Division of Conopco, …, priority 2000, dated 2013)
